PubChem BioAssay (NCI)
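The compound was tested at five concentrations on cells cultured in 96-well plates, with a 48-hour exposure period. GI50 marks 50% less growth. TGI is the concentration that stops growth completely.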

Key:
Assay in all cases: NCI tumour cell line growth inhibition, 48 h
786-0 renal = test system: 786-0 renal
A549 NSCLC = test system: A549 NSCLC
BT-549 breast = test system: BT-549 breast
CCRF-CEM leukemia = test system: CCRF-CEM leukemia
COLO 205 colon = test system: COLO 205 colon
EKVX NSCLC = test system: EKVX NSCLC
HCC-2998 colon = test system: HCC-2998 colon
HCT-116 colon = test system: HCT-116 colon
HCT-15 colon = test system: HCT-15 colon
HL-60(TB) leukemia = test system: HL-60(TB) leukemia
HOP-62 NSCLC = test system: HOP-62 NSCLC
HOP-92 NSCLC = test system: HOP-92 NSCLC
HS 578T breast = test system: HS 578T breast
HT29 colon = test system: HT29 colon
IGROV1 ovarian = test system: IGROV1 ovarian
K-562 leukemia = test system: K-562 leukemia
KM12 colon = test system: KM12 colon
M14 melanoma = test system: M14 melanoma
MALME-3M melanoma = test system: MALME-3M melanoma
MCF7 breast = test system: MCF7 breast
MDA-MB-231 breast = test system: MDA-MB-231 breast
MOLT-4 leukemia = test system: MOLT-4 leukemia
NCI-H226 lung = test system: NCI-H226 lung
NCI-H23 lung = test system: NCI-H23 lung
OVCAR-8 ovarian = test system: OVCAR-8 ovarian
PC-3 prostate = test system: PC-3 prostate
RPMI-8226 leukemia = test system: RPMI-8226 leukemia
RXF 393 renal = test system: RXF 393 renal
SK-MEL-2 melanoma = test system: SK-MEL-2 melanoma
SK-MEL-28 melanoma = test system: SK-MEL-28 melanoma
SK-MEL-5 melanoma = test system: SK-MEL-5 melanoma
SN12C renal = test system: SN12C renal
SNB-19 CNS = test system: SNB-19 CNS
SNB-75 CNS = test system: SNB-75 CNS
SR leukemia = test system: SR leukemia
SW-620 colon = test system: SW-620 colon
TK-10 renal = test system: TK-10 renal
UACC-257 melanoma = test system: UACC-257 melanoma
UACC-62 melanoma = test system: UACC-62 melanoma
UO-31 renal = test system: UO-31 renal
ACHN renal = test system: ACHN renal
CAKI-1 renal = test system: CAKI-1 renal
DU-145 prostate = test system: DU-145 prostate
LOX IMVI melanoma = test system: LOX IMVI melanoma
MDA-MB-435 = test system: MDA-MB-435
NCI-H460 lung = test system: NCI-H460 lung
NCI-H522 lung = test system: NCI-H522 lung
NCI/ADR-RES ovarian = test system: NCI/ADR-RES ovarian
OVCAR-3 ovarian = test system: OVCAR-3 ovarian
OVCAR-5 ovarian = test system: OVCAR-5 ovarian
SF-268 CNS = test system: SF-268 CNS
SF-295 CNS = test system: SF-295 CNS
SF-539 CNS = test system: SF-539 CNS
U251 CNS = test system: U251 CNS
OVCAR-4 ovarian = test system: OVCAR-4 ovarian
SK-OV-3 ovarian = test system: SK-OV-3 ovarian
T-47D breast = test system: T-47D breast

CCOC(=O)c1ccc(N=C2S/C(=C\C(=S)Nc3ccccc3)N(c3ccccc3)C2=Nc2ccc(C(=O)OCC)cc2)cc1
TGI (786-0 renal): > 100 µM
TGI (A549 NSCLC): > 100 µM
TGI (BT-549 breast): > 100 µM
TGI (CCRF-CEM leukemia): > 100 µM
TGI (COLO 205 colon): > 100 µM
TGI (EKVX NSCLC): > 100 µM
TGI (HCC-2998 colon): > 100 µM
TGI (HCT-116 colon): > 100 µM
TGI (HCT-15 colon): > 100 µM
TGI (HL-60(TB) leukemia): > 100 µM
TGI (HOP-62 NSCLC): > 100 µM
TGI (HOP-92 NSCLC): > 100 µM
TGI (HS 578T breast): > 100 µM
TGI (HT29 colon): > 100 µM
TGI (IGROV1 ovarian): > 100 µM
TGI (K-562 leukemia): > 100 µM
TGI (KM12 colon): > 100 µM
TGI (M14 melanoma): > 100 µM
TGI (MALME-3M melanoma): 82.6 µM
TGI (MCF7 breast): > 100 µM
TGI (MDA-MB-231 breast): > 100 µM
TGI (MOLT-4 leukemia): > 100 µM
TGI (NCI-H226 lung): > 100 µM
TGI (NCI-H23 lung): > 100 µM
TGI (OVCAR-8 ovarian): > 100 µM
TGI (PC-3 prostate): > 100 µM
TGI (RPMI-8226 leukemia): > 100 µM
TGI (RXF 393 renal): > 100 µM
TGI (SK-MEL-2 melanoma): > 100 µM
TGI (SK-MEL-28 melanoma): > 100 µM
TGI (SK-MEL-5 melanoma): > 100 µM
TGI (SN12C renal): > 100 µM
TGI (SNB-19 CNS): > 100 µM
TGI (SNB-75 CNS): > 100 µM
TGI (SR leukemia): > 100 µM
TGI (SW-620 colon): > 100 µM
TGI (TK-10 renal): > 100 µM
TGI (UACC-257 melanoma): > 100 µM
TGI (UACC-62 melanoma): > 100 µM
TGI (UO-31 renal): > 100 µM

CN(c1ccc(C(=O)O)cc1)c1cc(O/N=[N+](\[O-])N(C)C)c([N+](=O)[O-])cc1[N+](=O)[O-]
GI50 (786-0 renal): 3.25 µM
TGI (786-0 renal): 14.6 µM
GI50 (A549 NSCLC): 23.5 µM
TGI (A549 NSCLC): 63.7 µM
GI50 (ACHN renal): 3.8 µM
TGI (ACHN renal): 14.1 µM
GI50 (BT-549 breast): 17.4 µM
TGI (BT-549 breast): 32.6 µM
GI50 (CAKI-1 renal): 1790 nM
TGI (CAKI-1 renal): 4 µM
GI50 (CCRF-CEM leukemia): > 100 µM
TGI (CCRF-CEM leukemia): > 100 µM
GI50 (COLO 205 colon): 8.78 µM
TGI (COLO 205 colon): > 100 µM
GI50 (DU-145 prostate): 17.1 µM
TGI (DU-145 prostate): 33.5 µM
GI50 (EKVX NSCLC): 18.2 µM
TGI (EKVX NSCLC): 36.2 µM
GI50 (HCT-116 colon): 2720 nM
TGI (HCT-116 colon): 10.4 µM
GI50 (HCT-15 colon): 2030 nM
TGI (HCT-15 colon): 5.3 µM
GI50 (HL-60(TB) leukemia): 2840 nM
TGI (HL-60(TB) leukemia): 27.4 µM
GI50 (HOP-62 NSCLC): 14.5 µM
TGI (HOP-62 NSCLC): 31.3 µM
GI50 (HS 578T breast): 21.5 µM
TGI (HS 578T breast): 61.3 µM
GI50 (HT29 colon): 23 µM
TGI (HT29 colon): > 100 µM
GI50 (IGROV1 ovarian): 5.48 µM
TGI (IGROV1 ovarian): 24.5 µM
GI50 (K-562 leukemia): 6.99 µM
TGI (K-562 leukemia): > 100 µM
GI50 (KM12 colon): 10.9 µM
TGI (KM12 colon): 23.9 µM
GI50 (LOX IMVI melanoma): 1860 nM
TGI (LOX IMVI melanoma): 4.33 µM
GI50 (MCF7 breast): 6.8 µM
TGI (MCF7 breast): 54.8 µM
GI50 (MDA-MB-231 breast): 3.71 µM
TGI (MDA-MB-231 breast): 12.2 µM
GI50 (MDA-MB-435): 4.84 µM
TGI (MDA-MB-435): 19.9 µM
GI50 (MOLT-4 leukemia): 12.1 µM
TGI (MOLT-4 leukemia): > 100 µM
GI50 (NCI-H226 lung): 11.3 µM
TGI (NCI-H226 lung): 29 µM
GI50 (NCI-H23 lung): 4.83 µM
TGI (NCI-H23 lung): 29.2 µM
GI50 (NCI-H460 lung): 18.9 µM
TGI (NCI-H460 lung): > 100 µM
GI50 (NCI-H522 lung): 15.1 µM
TGI (NCI-H522 lung): > 100 µM
GI50 (NCI/ADR-RES ovarian): 3.35 µM
TGI (NCI/ADR-RES ovarian): 17.2 µM
GI50 (OVCAR-3 ovarian): 2620 nM
TGI (OVCAR-3 ovarian): 6.92 µM
GI50 (OVCAR-5 ovarian): 10.8 µM
TGI (OVCAR-5 ovarian): 72.5 µM
GI50 (OVCAR-8 ovarian): 22.3 µM
TGI (OVCAR-8 ovarian): 54.5 µM
GI50 (PC-3 prostate): 17.5 µM
TGI (PC-3 prostate): 38.1 µM
GI50 (RPMI-8226 leukemia): 2790 nM
TGI (RPMI-8226 leukemia): 18 µM
GI50 (RXF 393 renal): 17.1 µM
TGI (RXF 393 renal): 33.8 µM
GI50 (SF-268 CNS): 13.1 µM
TGI (SF-268 CNS): 36.3 µM
GI50 (SF-295 CNS): 12.6 µM
TGI (SF-295 CNS): 27 µM
GI50 (SF-539 CNS): 16.6 µM
TGI (SF-539 CNS): 35.8 µM
GI50 (SK-MEL-2 melanoma): 14.9 µM
TGI (SK-MEL-2 melanoma): 39.6 µM
GI50 (SK-MEL-28 melanoma): 21 µM
TGI (SK-MEL-28 melanoma): 57.1 µM
GI50 (SK-MEL-5 melanoma): 19.1 µM
TGI (SK-MEL-5 melanoma): 38.7 µM
GI50 (SN12C renal): 12.2 µM
TGI (SN12C renal): 25.3 µM
GI50 (SNB-19 CNS): 14.6 µM
TGI (SNB-19 CNS): 40.7 µM
GI50 (SNB-75 CNS): 25.6 µM
TGI (SNB-75 CNS): 55.6 µM
GI50 (SR leukemia): 19.8 µM
TGI (SR leukemia): > 100 µM
GI50 (SW-620 colon): 3.64 µM
TGI (SW-620 colon): > 100 µM
GI50 (TK-10 renal): 13.9 µM
TGI (TK-10 renal): 26.9 µM
GI50 (U251 CNS): 3.69 µM
TGI (U251 CNS): 14.1 µM
GI50 (UACC-257 melanoma): 21 µM
TGI (UACC-257 melanoma): 40.6 µM
GI50 (UACC-62 melanoma): 7.29 µM
TGI (UACC-62 melanoma): 19.8 µM
GI50 (UO-31 renal): 32.1 µM
TGI (UO-31 renal): > 100 µM

OCN(CO)c1ccc2c(c1)Cc1cc(F)ccc1-2
TGI (786-0 renal): > 100 µM
TGI (A549 NSCLC): 47.3 µM
TGI (ACHN renal): 36.4 µM
TGI (CAKI-1 renal): 44.6 µM
TGI (COLO 205 colon): 24.9 µM
TGI (DU-145 prostate): 50.2 µM
TGI (EKVX NSCLC): 41.5 µM
TGI (HCT-116 colon): > 100 µM
TGI (HCT-15 colon): 41.9 µM
TGI (HL-60(TB) leukemia): 78.4 µM
TGI (HOP-62 NSCLC): > 100 µM
TGI (HS 578T breast): 33.9 µM
TGI (HT29 colon): 27.9 µM
TGI (IGROV1 ovarian): 43 µM
TGI (K-562 leukemia): 39.9 µM
TGI (KM12 colon): 35.4 µM
TGI (LOX IMVI melanoma): 31.7 µM
TGI (M14 melanoma): 60.9 µM
TGI (MALME-3M melanoma): 52.4 µM
TGI (MCF7 breast): 42.7 µM
TGI (MDA-MB-231 breast): 32.9 µM
TGI (MDA-MB-435): 36.8 µM
TGI (MOLT-4 leukemia): 75.8 µM
TGI (NCI-H226 lung): 40.3 µM
TGI (NCI-H23 lung): 93.7 µM
TGI (NCI-H460 lung): 65.1 µM
TGI (NCI-H522 lung): 37.4 µM
TGI (NCI/ADR-RES ovarian): 51.4 µM
TGI (OVCAR-3 ovarian): 27.4 µM
TGI (OVCAR-4 ovarian): 45.7 µM
TGI (OVCAR-5 ovarian): 46.8 µM
TGI (OVCAR-8 ovarian): 40.5 µM
TGI (PC-3 prostate): 36.2 µM
TGI (RXF 393 renal): > 100 µM
TGI (SF-268 CNS): 81.3 µM
TGI (SF-295 CNS): 30.1 µM
TGI (SF-539 CNS): 36.8 µM
TGI (SK-MEL-2 melanoma): 45.9 µM
TGI (SK-MEL-28 melanoma): 88.7 µM
TGI (SK-MEL-5 melanoma): 23.3 µM
TGI (SK-OV-3 ovarian): 95.9 µM
TGI (SN12C renal): 38.6 µM
TGI (SNB-19 CNS): 44 µM
TGI (SNB-75 CNS): 56.3 µM
TGI (SR leukemia): 39.3 µM
TGI (SW-620 colon): 25.4 µM
TGI (T-47D breast): 36.1 µM
TGI (TK-10 renal): 39.2 µM
TGI (U251 CNS): 34.8 µM
TGI (UACC-257 melanoma): 37.2 µM
TGI (UACC-62 melanoma): 38.1 µM
TGI (UO-31 renal): 59.9 µM
